Results taken from patent publication US20130131321A1, “LIGANDS FOR ANTIBODY AND Fc-FUSION PROTEIN PURIFICATION BY AFFINITY CHROMATOGRAPHY” (GRAFFINITY PHARMACEUTICALS GMBH, priority 2010, published 2013).
Read-outs that look alike come from different tables or passages of the source.

Tests used:
Bevacizumab [1] = biological target: T1, Bevacizumab (Homo sapiens, UniProt P01857); assay: Microtiter plate chromatography of resins, Bevacizumab whole IgG (bound, yield, selectivity); type: binding, humanized
T1 construct: fused on or other part: humanised anti-VEGF-A VH domain N-terminal of the gamma-1 constant region (engineered, no UniProt entry)

Bevacizumab [2] = assay: as above; type: binding, humanized
Tocilizumab = assay: Microtiter plate chromatography of resins, Tocilizumab (bound, yield); type: binding, humanized
Palivizumab = assay: Microtiter plate chromatography of resins, Palivizumab (bound, yield); type: binding, humanized
[3] = test system: human poly-IgG (h-poly-IgG); assay: Microtiter plate chromatography of resins, human poly-IgG (bound, yield); type: binding
host cell proteins (HCP) = assay: Microtiter plate chromatography of resins, host cell proteins (bound); type: binding, CHO
[4] = fraction of whole IgG Bevacizumab bound to resin
[5] = mass of whole IgG Bevacizumab eluted / mass injected
[6] = fraction of injected whole IgG bound to resin
[7] = mass eluted / mass injected, whole IgG
[8] = fraction of injected protein bound to resin
[9] = fraction of injected host cell proteins bound to resin

COc1ccc(NC(=O)c2nnc3ccccn23)cc1C(=O)NCCCN [Ligand L43, 2-Methoxy-5-([1,2,4]triazolo[4,3-a]pyridin-3-ylcarboxamido)benzoic acid (3-amino-1-propyl)amide]
Bevacizumab IgG Bound (%) (Bevacizumab [1]; [4]): 100% | Bevacizumab IgG Yield (%) (Bevacizumab [1]; [5]): 90% | Selectivity (Bevacizumab [2]): 8.0 | Tocilizumab Bound (%) (Tocilizumab): 88% | Tocilizumab Yield (%) (Tocilizumab): 88% | Palivizumab Bound (%) (Palivizumab): 61% | Palivizumab Yield (%) (Palivizumab): 43% | h-poly-IgG Bound (%) [3]: 90% | h-poly-IgG Yield (%) [3]: 90% | HCP Bound (%) (host cell proteins (HCP); host cell proteins): 13%

COc1ccc(NC(=O)c2nc(-c3ccco3)no2)cc1C(=O)NCCCN [Ligand L55, 5-[3-(2-Furyl)-1,2,4-oxadiazol-5-ylcarboxamido]-2-methoxybenzoic acid (3-amino-1-propyl)amide]
Bevacizumab IgG Bound (%) (Bevacizumab [1]; [4]): 100% | Bevacizumab IgG Yield (%) (Bevacizumab [1]; [5]): 95% | Selectivity (Bevacizumab [2]): 3.3 | Tocilizumab Bound (%) (Tocilizumab): 100% | Tocilizumab Yield (%) (Tocilizumab): 100% | Palivizumab Bound (%) (Palivizumab): 100% | Palivizumab Yield (%) (Palivizumab): 99% | h-poly-IgG Bound (%) [3]: 100% | h-poly-IgG Yield (%) [3]: 93% | HCP Bound (%) (host cell proteins (HCP); host cell proteins): 31%

NCCCNC(=O)c1cccc(C(=O)Nc2nc3ccccc3s2)c1 [Ligand L72, Isophthalic acid N-(3-aminopropyl)-N′-(benzothiazol-2-yl)amide]
Bevacizumab IgG Bound (%) (Bevacizumab [1]; [6]): 100% | Bevacizumab IgG Yield (%) (Bevacizumab [1]; [7]): 83% | Selectivity (Bevacizumab [2]): 2.5 | Tocilizumab Bound (%) (Tocilizumab; [8]): 93% | Tocilizumab Yield (%) (Tocilizumab; mass eluted / mass injected): 93% | Palivizumab Bound (%) (Palivizumab; [8]): 91% | Palivizumab Yield (%) (Palivizumab; mass eluted / mass injected): 91% | h-poly-IgG Bound (%) [3, 8]: 90% | h-poly-IgG Yield (%) ([3]; mass eluted / mass injected): 90% | HCP Bound (%) (host cell proteins (HCP); [9]): 40%

COc1ccc(NC(=O)c2cn3ncccc3n2)cc1C(=O)NCCCN [Ligand L48, 5-(Imidazo[1,2-b]pyridazin-2-ylcarboxamido)-2-methoxybenzoic acid (3-amino-1-propyl)amide]
Bevacizumab IgG Bound (%) (Bevacizumab [1]; [4]): 100% | Bevacizumab IgG Yield (%) (Bevacizumab [1]; [5]): 97% | Selectivity (Bevacizumab [2]; fraction of bound Bevacizumab whole IgG / fraction of bound HCP, truncated beyond values of 10): 10.0 | Tocilizumab Bound (%) (Tocilizumab): 87% | Tocilizumab Yield (%) (Tocilizumab): 87% | Palivizumab Bound (%) (Palivizumab): 58% | Palivizumab Yield (%) (Palivizumab): 54% | h-poly-IgG Bound (%) [3]: 84% | h-poly-IgG Yield (%) [3]: 84% | HCP Bound (%) (host cell proteins (HCP); host cell proteins): 8%

COc1ccc(NC(=O)c2cc(-c3cc(C)sc3C)n(C)n2)cc1C(=O)NCCCN [Ligand L3, 5-[5-(2,5-Dimethyl-3-thienyl)-1-methylpyrazol-3-yl]carboxamido-2-methoxybenzoic acid N-(3-aminopropyl)amide]
Bevacizumab IgG Bound (%) (Bevacizumab [1]; [4]): 100% | Bevacizumab IgG Yield (%) (Bevacizumab [1]; [5]): 89% | Selectivity (Bevacizumab [2]): 1.4 | Tocilizumab Bound (%) (Tocilizumab): 97% | Tocilizumab Yield (%) (Tocilizumab): 95% | Palivizumab Bound (%) (Palivizumab): 100% | Palivizumab Yield (%) (Palivizumab): 93% | h-poly-IgG Bound (%) [3]: 102% | h-poly-IgG Yield (%) [3]: 72% | HCP Bound (%) (host cell proteins (HCP); host cell proteins): 62%

NCCCNC(=O)c1cccc(C(=O)Nc2nc(-c3ccccc3)cs2)c1 [Ligand L73, Isophthalic acid N-(3-aminopropyl)-N′-(4-phenylthiazol-2-yl)amide]
Bevacizumab IgG Bound (%) (Bevacizumab [1]; [6]): 100% | Bevacizumab IgG Yield (%) (Bevacizumab [1]; [7]): 92% | Selectivity (Bevacizumab [2]): 1.9 | Tocilizumab Bound (%) (Tocilizumab; [8]): 97% | Tocilizumab Yield (%) (Tocilizumab; mass eluted / mass injected): 95% | Palivizumab Bound (%) (Palivizumab; [8]): 87% | Palivizumab Yield (%) (Palivizumab; mass eluted / mass injected): 87% | h-poly-IgG Bound (%) [3, 8]: 92% | h-poly-IgG Yield (%) ([3]; mass eluted / mass injected): 87% | HCP Bound (%) (host cell proteins (HCP); [9]): 52%

COc1ccc(NC(=O)c2nccc3ccccc23)cc1C(=O)NCCCN [Ligand L35, 5-(1-Isoquinolinyl)carboxamido-2-methoxybenzoic acid N-(3-aminopropyl)amide]
Bevacizumab IgG Bound (%) (Bevacizumab [1]; [4]): 100% | Bevacizumab IgG Yield (%) (Bevacizumab [1]; [5]): 96% | Selectivity (Bevacizumab [2]): 2.0 | Tocilizumab Bound (%) (Tocilizumab): 100% | Tocilizumab Yield (%) (Tocilizumab): 92% | Palivizumab Bound (%) (Palivizumab): 100% | Palivizumab Yield (%) (Palivizumab): 95% | h-poly-IgG Bound (%) [3]: 95% | h-poly-IgG Yield (%) [3]: 76% | HCP Bound (%) (host cell proteins (HCP); host cell proteins): 51%
